Test results published in US6090829A, “Method for treating excessive aggression” (Eli Lilly and Company, priority 1998, dated 2000).

Assays:
[1] = molecular target: 3H-oxotremorine-M binding (muscarinic receptors); assay: 3H-oxotremorine-M binding inhibition; conditions: radioligand 3H-oxotremorine-M; read-out: inhibition constant (Ki) for binding of 3H-oxotremorine-M
m4 receptors = assay: cAMP formation in CHO m4 cells treated with pertussis toxin; assay type: cell-based
From the text: Muscarinic agonists stimulate the formation of cAMP up to 10 fold in CHO m4 cells treated with pertussisi toxin and the pharmacology is consistent with the mediation by m4 receptors. Eckols K. Soc. Neurosci Abstr., 21:2040 (1995).

D2 receptor subtype = assay: pharmacological studies at the D2 receptor subtype

CCCCCCOc1nsnc1C1=CCCN(C)C1 [xanomeline, 3-(4-hexyloxy-1,2,5-thiadiazol-3-yl)-1,2,5,6-tetrahydro-1-methylpyridine]
Ki [1]: 2 nM | stimulation of the formation of cAMP (m4 receptors): efficaciously and potently stimulated the formation of cAMP | activity at the D2 receptor subtype (D2 receptor subtype): active
